Measured values as given in ChEMBL document CHEMBL1201862, “PubChem BioAssay data set” (2004).
Several values for one entry are separate records, joined by “and”; a condition that tells them apart may be missing. Equal values may be shown once.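 48-hour exposure; five concentrations; linearly interpolated endpoints. GI50 = concentration required for 50% inhibition of growth.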 Activity calls are given as the source filed them. Cut-off read from the data, not from the text of the source: active = GI50 up to about 1.1 µM and inactive = higher.

How the values were obtained:
Test in all cases: DTP human tumour cell line panel, 48 h
BT-549 = system: BT-549
CCRF-CEM = system: CCRF-CEM
COLO 205 = system: COLO 205
EKVX = system: EKVX
HCT-116 = system: HCT-116
HCT-15 = system: HCT-15
HL-60 = system: HL-60
HOP-92 = system: HOP-92
HT-29 = system: HT-29
IGROV-1 = system: IGROV-1
K562 = system: K562
M14 = system: M14
MCF7 = system: MCF7
MDA-MB-231 = system: MDA-MB-231
MOLT-4 = system: MOLT-4
NCI-H226 = system: NCI-H226
NCI-H23 = system: NCI-H23
NCI-H460 = system: NCI-H460
NCI-H522 = system: NCI-H522
NCI/ADR-RES = system: NCI/ADR-RES
OVCAR-5 = system: OVCAR-5
PC-3 = system: PC-3
RPMI-8226 = system: RPMI-8226
RXF 393 = system: RXF 393
SF-295 = system: SF-295
SF-539 = system: SF-539
SK-MEL-2 = system: SK-MEL-2
SK-OV-3 = system: SK-OV-3
SN12C = system: SN12C
SNB-75 = system: SNB-75
SR = system: SR
SW-620 = system: SW-620
T47D = system: T47D
TK-10 = system: TK-10
UACC-257 = system: UACC-257
UACC-62 = system: UACC-62
A498 = system: A498
A549 = system: A549
ACHN = system: ACHN
CAKI-1 = system: CAKI-1
DU-145 = system: DU-145
KM12 = system: KM12
LOX IMVI = system: LOX IMVI
MDA-MB-435 = system: MDA-MB-435
MDA-N = system: MDA-N
Malme-3M = system: Malme-3M
OVCAR-3 = system: OVCAR-3
OVCAR-8 = system: OVCAR-8
SF-268 = system: SF-268
SK-MEL-5 = system: SK-MEL-5
SNB-19 = system: SNB-19
U-251 = system: U-251
UO-31 = system: UO-31
786-0 = system: 786-0
HCC 2998 = system: HCC 2998
SK-MEL-28 = system: SK-MEL-28
HOP-62 = system: HOP-62
OVCAR-4 = system: OVCAR-4

CC1CCC2(NC1)OC1CC3C4CC=C5CC(O)CCC5(C)C4CCC3(C)C1C2C (stereo unspecified)
GI50 (BT-549): 32.8 µM (inactive) and 48.5 µM (inactive)
GI50 (CCRF-CEM): 12.4 µM (inactive) and 15.2 µM (inactive)
GI50 (COLO 205): 58.5 µM (inactive) and 40.6 µM (inactive)
GI50 (EKVX): 22.5 µM (inactive) and 37.4 µM (inactive)
GI50 (HCT-116): 18.8 µM (inactive) and 9.86 µM (inactive)
GI50 (HCT-15): 32.5 µM and 38.8 µM
GI50 (HL-60): 15.1 µM (inactive) and 11.6 µM (inactive)
GI50 (HOP-92): 19.5 µM (inactive) and 17.5 µM (inactive)
GI50 (HT-29): 24.1 µM (inactive) and 12.5 µM (inactive)
GI50 (IGROV-1): 32.5 µM (inactive) and 35 µM (inactive)
GI50 (K562): 14.9 µM (inactive)
GI50 (M14): 76.6 µM (inactive) and 42.1 µM (inactive)
GI50 (MCF7): 23.2 µM (inactive) and 42.9 µM (inactive)
GI50 (MDA-MB-231): 12.8 µM (inactive) and 24.9 µM (inactive)
GI50 (MOLT-4): 18.3 µM (inactive) and 18.6 µM (inactive)
GI50 (NCI-H226): 54 µM (inactive) and 27.8 µM (inactive)
GI50 (NCI-H23): 39.4 µM (inactive) and 37.1 µM (inactive)
GI50 (NCI-H460): 25.9 µM (inactive) and 14.1 µM (inactive)
GI50 (NCI-H522): 31.1 µM (inactive) and 22.4 µM (inactive)
GI50 (NCI/ADR-RES): 13.2 µM (inactive) and 14.4 µM (inactive)
GI50 (OVCAR-5): 39.1 µM (inactive) and 40.3 µM (inactive)
GI50 (PC-3): 22.7 µM (inactive) and 34.9 µM (inactive)
GI50 (RPMI-8226): 20.6 µM (inactive) and 10.9 µM (inactive)
GI50 (RXF 393): 25.2 µM (inactive) and 16.8 µM (inactive)
GI50 (SF-295): 24.9 µM (inactive) and 18.7 µM (inactive)
GI50 (SF-539): 17.3 µM (inactive) and 10.9 µM (inactive)
GI50 (SK-MEL-2): 29.9 µM (inactive) and 19.5 µM (inactive)
GI50 (SK-OV-3): 24.8 µM (inactive) and 15.7 µM (inactive)
GI50 (SN12C): 15 µM (inactive) and 22.8 µM (inactive)
GI50 (SNB-75): 4.72 µM (inactive)
GI50 (SR): 4 µM (inactive) and 2.87 µM (inactive)
GI50 (SW-620): 18.5 µM (inactive) and 27.8 µM (inactive)
GI50 (T47D): 23.4 µM (inactive) and 17.5 µM (inactive)
GI50 (TK-10): 12.4 µM (inactive) and 20.4 µM (inactive)
GI50 (UACC-257): 55.8 µM (inactive) and 49.1 µM (inactive)
GI50 (UACC-62): 27.2 µM (inactive) and 18.1 µM (inactive)

Oc1ccc(-c2nc3cc(C(F)(F)F)ccc3s2)cc1
GI50 (A498): 18.2 µM (inactive)
GI50 (A549): 15.4 µM (inactive)
GI50 (ACHN): 14.5 µM (inactive)
GI50 (BT-549): 15.1 µM (inactive)
GI50 (CAKI-1): 15.7 µM (inactive)
GI50 (CCRF-CEM): 12.2 µM (inactive)
GI50 (COLO 205): 18.8 µM (inactive)
GI50 (DU-145): 16.4 µM (inactive)
GI50 (EKVX): 1.77 µM (inactive)
GI50 (HCT-116): 14.5 µM (inactive)
GI50 (HCT-15): 10.1 µM
GI50 (HL-60): 18.1 µM (inactive)
GI50 (HT-29): 18.9 µM (inactive)
GI50 (IGROV-1): 11.2 µM (inactive)
GI50 (K562): 23.9 µM (inactive)
GI50 (KM12): 13.1 µM (inactive)
GI50 (LOX IMVI): 12.8 µM (inactive)
GI50 (M14): 15.5 µM (inactive)
GI50 (MCF7): 10.2 µM (inactive)
GI50 (MDA-MB-231): 14.2 µM (inactive)
GI50 (MDA-MB-435): 15.7 µM (inactive)
GI50 (MDA-N): 17.7 µM (inactive)
GI50 (MOLT-4): 27.2 µM (inactive)
GI50 (Malme-3M): 13.6 µM (inactive)
GI50 (NCI-H226): 17.3 µM (inactive)
GI50 (NCI-H23): 15.9 µM (inactive)
GI50 (NCI-H460): 15.4 µM (inactive)
GI50 (NCI-H522): 12.6 µM (inactive)
GI50 (NCI/ADR-RES): 20 µM (inactive)
GI50 (OVCAR-3): 15 µM (inactive)
GI50 (OVCAR-5): 17.2 µM (inactive)
GI50 (OVCAR-8): 15.6 µM (inactive)
GI50 (PC-3): 14.5 µM (inactive)
GI50 (RPMI-8226): 16.7 µM (inactive)
GI50 (RXF 393): 17.4 µM (inactive)
GI50 (SF-268): 16.1 µM (inactive)
GI50 (SF-295): 15 µM (inactive)
GI50 (SF-539): 19.5 µM (inactive)
GI50 (SK-MEL-2): 16.1 µM (inactive)
GI50 (SK-MEL-5): 14.9 µM (inactive)
GI50 (SK-OV-3): 26 µM (inactive)
GI50 (SN12C): 17.7 µM (inactive)
GI50 (SNB-19): 16.7 µM (inactive)
GI50 (SR): 15.8 µM (inactive)
GI50 (SW-620): 20.2 µM (inactive)
GI50 (TK-10): 18.8 µM (inactive)
GI50 (U-251): 16.1 µM (inactive)
GI50 (UACC-257): 18 µM (inactive)
GI50 (UACC-62): 13.9 µM (inactive)
GI50 (UO-31): 13.6 µM (inactive)

O=S(=O)(O)c1ccc2c(/N=N/c3ccccc3)c(O)ccc2c1
GI50 (786-0): > 100 µM (inactive)
GI50 (A498): > 100 µM (inactive)
GI50 (BT-549): > 100 µM (inactive)
GI50 (CAKI-1): > 100 µM (inactive)
GI50 (CCRF-CEM): > 100 µM (inactive)
GI50 (COLO 205): > 100 µM (inactive)
GI50 (DU-145): > 100 µM (inactive)
GI50 (EKVX): > 100 µM (inactive)
GI50 (HCC 2998): > 100 µM (inactive)
GI50 (HCT-116): > 100 µM (inactive)
GI50 (HCT-15): > 100 µM
GI50 (HL-60): > 100 µM (inactive)
GI50 (HOP-92): > 100 µM (inactive)
GI50 (IGROV-1): > 100 µM (inactive)
GI50 (KM12): > 100 µM (inactive)
GI50 (M14): > 100 µM (inactive)
GI50 (MCF7): > 100 µM (inactive)
GI50 (MDA-MB-435): > 100 µM (inactive)
GI50 (MOLT-4): > 100 µM (inactive)
GI50 (NCI-H460): > 100 µM (inactive)
GI50 (OVCAR-3): > 100 µM (inactive)
GI50 (OVCAR-5): > 100 µM (inactive)
GI50 (OVCAR-8): > 100 µM (inactive)
GI50 (RXF 393): > 100 µM (inactive)
GI50 (SF-539): > 100 µM (inactive)
GI50 (SK-MEL-28): > 100 µM (inactive)
GI50 (SK-MEL-2): > 100 µM (inactive)
GI50 (SK-MEL-5): > 100 µM (inactive)
GI50 (SK-OV-3): > 100 µM (inactive)
GI50 (SN12C): > 100 µM (inactive)
GI50 (SNB-19): > 100 µM (inactive)
GI50 (SNB-75): > 100 µM (inactive)
GI50 (SR): > 100 µM (inactive)
GI50 (SW-620): > 100 µM (inactive)
GI50 (T47D): > 100 µM (inactive)
GI50 (U-251): > 100 µM (inactive)
GI50 (UACC-257): > 100 µM (inactive)
GI50 (UO-31): > 100 µM (inactive)

CCOC(OCC)N1C(=O)C2(C(OCC)OCC)CC3C(OC(=O)N3N)c3cccc1c32 (stereo unspecified)
GI50 (786-0): > 100 µM (inactive)
GI50 (A498): 61.2 µM (inactive)
GI50 (A549): > 100 µM (inactive)
GI50 (ACHN): > 100 µM (inactive)
GI50 (BT-549): > 100 µM (inactive)
GI50 (CAKI-1): > 100 µM (inactive)
GI50 (CCRF-CEM): 54.2 µM (inactive)
GI50 (COLO 205): > 100 µM (inactive)
GI50 (DU-145): > 100 µM (inactive)
GI50 (EKVX): > 100 µM (inactive)
GI50 (HCC 2998): > 100 µM (inactive)
GI50 (HCT-116): > 100 µM (inactive)
GI50 (HCT-15): > 100 µM
GI50 (HL-60): > 100 µM (inactive)
GI50 (HOP-62): > 100 µM (inactive)
GI50 (HT-29): > 100 µM (inactive)
GI50 (IGROV-1): > 100 µM (inactive)
GI50 (K562): > 10 µM (inactive)
GI50 (KM12): > 100 µM (inactive)
GI50 (LOX IMVI): > 100 µM (inactive)
GI50 (MCF7): > 100 µM (inactive)
GI50 (MDA-MB-231): > 100 µM (inactive)
GI50 (MDA-MB-435): > 100 µM (inactive)
GI50 (MDA-N): > 100 µM (inactive)
GI50 (MOLT-4): 79.4 µM (inactive)
GI50 (Malme-3M): > 100 µM (inactive)
GI50 (NCI-H226): > 100 µM (inactive)
GI50 (NCI-H23): > 100 µM (inactive)
GI50 (NCI-H460): > 100 µM (inactive)
GI50 (NCI/ADR-RES): > 100 µM (inactive)
GI50 (OVCAR-3): > 100 µM (inactive)
GI50 (OVCAR-4): > 100 µM (inactive)
GI50 (OVCAR-5): > 100 µM (inactive)
GI50 (OVCAR-8): > 100 µM (inactive)
GI50 (RPMI-8226): > 100 µM (inactive)
GI50 (RXF 393): > 100 µM (inactive)
GI50 (SF-268): > 100 µM (inactive)
GI50 (SF-295): > 100 µM (inactive)
GI50 (SF-539): > 100 µM (inactive)
GI50 (SK-MEL-28): > 100 µM (inactive)
GI50 (SK-MEL-5): > 100 µM (inactive)
GI50 (SK-OV-3): > 100 µM (inactive)
GI50 (SN12C): > 100 µM (inactive)
GI50 (SNB-19): > 100 µM (inactive)
GI50 (SR): > 100 µM (inactive)
GI50 (SW-620): > 100 µM (inactive)
GI50 (T47D): > 100 µM (inactive)
GI50 (TK-10): > 100 µM (inactive)
GI50 (U-251): > 100 µM (inactive)
GI50 (UACC-257): > 100 µM (inactive)
GI50 (UACC-62): > 100 µM (inactive)
GI50 (UO-31): > 100 µM (inactive)
